± gives the uncertainty stated by the source.
Test: xn = mol fraction of the nth substance listed

With CCCCCCO + CCCCCC the viscosity (293.15 K, 100 kPa, x1 = 0.0277) was 0.3397 ± 0.0052 mPa·s, the viscosity (293.15 K, 100 kPa, x1 = 0.05) was 0.3453 ± 0.0053 mPa·s and the viscosity (293.15 K, 100 kPa, x1 = 0.1) was 0.3793 ± 0.0055 mPa·s. For the same compound, the viscosity (293.15 K, 100 kPa, x1 = 0.1976) was 0.4607 ± 0.006 mPa·s, the viscosity (293.15 K, 100 kPa, x1 = 0.2999) was 0.5855 ± 0.0069 mPa·s and the viscosity (293.15 K, 100 kPa, x1 = 0.3999) was 0.7701 ± 0.0086 mPa·s. It also gave a viscosity (293.15 K, 100 kPa, x1 = 0.5) of 1.068 ± 0.011 mPa·s, a viscosity (293.15 K, 100 kPa, x1 = 0.6002) of 1.481 ± 0.016 mPa·s and a viscosity (293.15 K, 100 kPa, x1 = 0.7) of 1.971 ± 0.021 mPa·s. It also gave a viscosity (293.15 K, 100 kPa, x1 = 0.8) of 2.71 ± 0.029 mPa·s, a viscosity (293.15 K, 100 kPa, x1 = 0.9096) of 3.927 ± 0.044 mPa·s and a viscosity (298.15 K, 100 kPa, x1 = 0.0277) of 0.3247 ± 0.0052 mPa·s. It also gave a viscosity (298.15 K, 100 kPa, x1 = 0.05) of 0.329 ± 0.0052 mPa·s, a viscosity (298.15 K, 100 kPa, x1 = 0.1) of 0.3597 ± 0.0054 mPa·s and a viscosity (298.15 K, 100 kPa, x1 = 0.1976) of 0.433 ± 0.0058 mPa·s. The viscosity (298.15 K, 100 kPa, x1 = 0.2999) was 0.5506 ± 0.0067 mPa·s, the viscosity (298.15 K, 100 kPa, x1 = 0.3999) was 0.7084 ± 0.0081 mPa·s and the viscosity (298.15 K, 100 kPa, x1 = 0.5) was 0.9696 ± 0.011 mPa·s. For the same compound, the viscosity (298.15 K, 100 kPa, x1 = 0.6002) was 1.328 ± 0.014 mPa·s, the viscosity (298.15 K, 100 kPa, x1 = 0.7) was 1.765 ± 0.019 mPa·s and the viscosity (298.15 K, 100 kPa, x1 = 0.8) was 2.381 ± 0.026 mPa·s. For the same compound, the viscosity (298.15 K, 100 kPa, x1 = 0.9096) was 3.398 ± 0.038 mPa·s, the viscosity (298.15 K, 101.33 kPa, x2 = 0.1327) was 3.088 ± 0.024 mPa·s and the viscosity (298.15 K, 101.33 kPa, x2 = 0.1854) was 2.578 ± 0.02 mPa·s. For the same compound, the viscosity (298.15 K, 101.33 kPa, x2 = 0.2308) was 2.207 ± 0.017 mPa·s, the viscosity (298.15 K, 101.33 kPa, x2 = 0.3137) was 1.632 ± 0.013 mPa·s and the viscosity (298.15 K, 101.33 kPa, x2 = 0.4404) was 1.072 ± 0.009 mPa·s. For the same compound, the viscosity (298.15 K, 101.33 kPa, x2 = 0.4841) was 0.941 ± 0.008 mPa·s, the viscosity (298.15 K, 101.33 kPa, x2 = 0.6117) was 0.648 ± 0.006 mPa·s and the viscosity (298.15 K, 101.33 kPa, x2 = 0.7122) was 0.501 ± 0.005 mPa·s. The viscosity (298.15 K, 101.33 kPa, x2 = 0.8046) was 0.408 ± 0.004 mPa·s, the viscosity (298.15 K, 101.33 kPa, x2 = 0.8997) was 0.338 ± 0.004 mPa·s and the viscosity (298.15 K, 101.33 kPa, x2 = 0.9493) was 0.309 ± 0.003 mPa·s. It also gave a viscosity (303 K, 101.33 kPa, x1 = 0.0995) of 0.3348 ± 0.013 mPa·s, a viscosity (303 K, 101.33 kPa, x1 = 0.1996) of 0.4052 ± 0.013 mPa·s and a viscosity (303 K, 101.33 kPa, x1 = 0.2995) of 0.5115 ± 0.015 mPa·s. It also gave a viscosity (303 K, 101.33 kPa, x1 = 0.4012) of 0.6522 ± 0.016 mPa·s, a viscosity (303 K, 101.33 kPa, x1 = 0.5004) of 0.8535 ± 0.019 mPa·s and a viscosity (303 K, 101.33 kPa, x1 = 0.6) of 1.167 ± 0.025 mPa·s. It also gave a viscosity (303 K, 101.33 kPa, x1 = 0.6983) of 1.608 ± 0.036 mPa·s, a viscosity (303 K, 101.33 kPa, x1 = 0.7965) of 2.139 ± 0.051 mPa·s and a viscosity (303 K, 101.33 kPa, x1 = 0.8984) of 2.867 ± 0.075 mPa·s. It also gave a viscosity (303.15 K, 100 kPa, x1 = 0.0277) of 0.3116 ± 0.0051 mPa·s, a viscosity (303.15 K, 100 kPa, x1 = 0.05) of 0.3153 ± 0.0051 mPa·s and a viscosity (303.15 K, 100 kPa, x1 = 0.1) of 0.343 ± 0.0053 mPa·s. The viscosity (303.15 K, 100 kPa, x1 = 0.1976) was 0.4107 ± 0.0057 mPa·s, the viscosity (303.15 K, 100 kPa, x1 = 0.2999) was 0.5173 ± 0.0065 mPa·s and the viscosity (303.15 K, 100 kPa, x1 = 0.3999) was 0.6524 ± 0.0076 mPa·s. It also gave a viscosity (303.15 K, 100 kPa, x1 = 0.5) of 0.885 ± 0.0098 mPa·s, a viscosity (303.15 K, 100 kPa, x1 = 0.6002) of 1.194 ± 0.013 mPa·s and a viscosity (303.15 K, 100 kPa, x1 = 0.7) of 1.569 ± 0.017 mPa·s. It also gave a viscosity (303.15 K, 100 kPa, x1 = 0.8) of 2.091 ± 0.023 mPa·s, a viscosity (303.15 K, 100 kPa, x1 = 0.9096) of 2.945 ± 0.033 mPa·s and a viscosity (303.15 K, 101.33 kPa, x2 = 0.0954) of 2.883 ± 0.026 mPa·s. The viscosity (303.15 K, 101.33 kPa, x2 = 0.1918) was 2.18 ± 0.02 mPa·s, the viscosity (303.15 K, 101.33 kPa, x2 = 0.2892) was 1.6 ± 0.015 mPa·s and the viscosity (303.15 K, 101.33 kPa, x2 = 0.3876) was 1.19 ± 0.011 mPa·s. The viscosity (303.15 K, 101.33 kPa, x2 = 0.487) was 0.8951 ± 0.0087 mPa·s, the viscosity (303.15 K, 101.33 kPa, x2 = 0.5874) was 0.6793 ± 0.0068 mPa·s and the viscosity (303.15 K, 101.33 kPa, x2 = 0.689) was 0.5301 ± 0.0054 mPa·s. For the same compound, the viscosity (303.15 K, 101.33 kPa, x2 = 0.7915) was 0.4188 ± 0.0045 mPa·s, the viscosity (303.15 K, 101.33 kPa, x2 = 0.8952) was 0.3557 ± 0.0039 mPa·s and the viscosity (308.15 K, 100 kPa, x1 = 0.0277) was 0.2979 ± 0.005 mPa·s. The viscosity (308.15 K, 100 kPa, x1 = 0.05) was 0.3006 ± 0.0051 mPa·s, the viscosity (308.15 K, 100 kPa, x1 = 0.1) was 0.3256 ± 0.0052 mPa·s and the viscosity (308.15 K, 100 kPa, x1 = 0.1976) was 0.3877 ± 0.0056 mPa·s.
